Results reported in article PMC9697446 (International Journal of Molecular Sciences, 2022).

Legend:
[1] = biological target: T1, NMDA receptor intrachannel site ([3H]MK-801) (Rattus norvegicus, UniProt P35439); experiment: Radioligand binding, [3H]MK-801 site of the NMDA receptor
T1 construct: from tissue; host or cells: rat brain membranes
Procedure: (§1) The experiments were carried out using a rat brain membrane fraction.
(§2) The effect of test compounds on the radioligand binding to NMDA receptors was determined as previously described. Two radioactive ligands were used: [^3H] […] A pellet of rat brain membrane specimen was resuspended in a working buffer (5 mM HEPES/4.5 mM Tris buffer, pH 7.6) in a ratio of 1:5 and stored in liquid nitrogen. The reaction mixture (with a final volume of 0.5 mL) contained 200 µL of the working buffer, 50 µL of 50 nM radioligand solution, and 250 µL of the membrane suspension. Nonspecific binding was determined in the presence of 50 µL of […] of unlabeled ligand.
(§3) For the binding study, the reaction mixture was incubated at room temperature for 2 h. After incubation, the samples were filtered through GF/B glass-fiber filters (Whatman), washed with the working buffer, dried, and transferred to scintillation vials, and then 5 mL of scintillation fluid was added to the vials containing 4 g of diphenyloxazole (PPO), 0.2 g of diphenyloxazoil benzene (POPOP), and 1 L of toluene.
(§4) The effect of the test compounds on the binding of [^3H]

[2] = biological target: T2, NMDA receptor peripheral site ([3H]ifenprodil) (Rattus norvegicus, UniProt P35439+Q00960); experiment: Radioligand binding, [3H]ifenprodil site of the NMDA receptor
T2 construct: from tissue; host or cells: rat brain membranes
T2 sequence (Q00960 27-1482, other chains not shown): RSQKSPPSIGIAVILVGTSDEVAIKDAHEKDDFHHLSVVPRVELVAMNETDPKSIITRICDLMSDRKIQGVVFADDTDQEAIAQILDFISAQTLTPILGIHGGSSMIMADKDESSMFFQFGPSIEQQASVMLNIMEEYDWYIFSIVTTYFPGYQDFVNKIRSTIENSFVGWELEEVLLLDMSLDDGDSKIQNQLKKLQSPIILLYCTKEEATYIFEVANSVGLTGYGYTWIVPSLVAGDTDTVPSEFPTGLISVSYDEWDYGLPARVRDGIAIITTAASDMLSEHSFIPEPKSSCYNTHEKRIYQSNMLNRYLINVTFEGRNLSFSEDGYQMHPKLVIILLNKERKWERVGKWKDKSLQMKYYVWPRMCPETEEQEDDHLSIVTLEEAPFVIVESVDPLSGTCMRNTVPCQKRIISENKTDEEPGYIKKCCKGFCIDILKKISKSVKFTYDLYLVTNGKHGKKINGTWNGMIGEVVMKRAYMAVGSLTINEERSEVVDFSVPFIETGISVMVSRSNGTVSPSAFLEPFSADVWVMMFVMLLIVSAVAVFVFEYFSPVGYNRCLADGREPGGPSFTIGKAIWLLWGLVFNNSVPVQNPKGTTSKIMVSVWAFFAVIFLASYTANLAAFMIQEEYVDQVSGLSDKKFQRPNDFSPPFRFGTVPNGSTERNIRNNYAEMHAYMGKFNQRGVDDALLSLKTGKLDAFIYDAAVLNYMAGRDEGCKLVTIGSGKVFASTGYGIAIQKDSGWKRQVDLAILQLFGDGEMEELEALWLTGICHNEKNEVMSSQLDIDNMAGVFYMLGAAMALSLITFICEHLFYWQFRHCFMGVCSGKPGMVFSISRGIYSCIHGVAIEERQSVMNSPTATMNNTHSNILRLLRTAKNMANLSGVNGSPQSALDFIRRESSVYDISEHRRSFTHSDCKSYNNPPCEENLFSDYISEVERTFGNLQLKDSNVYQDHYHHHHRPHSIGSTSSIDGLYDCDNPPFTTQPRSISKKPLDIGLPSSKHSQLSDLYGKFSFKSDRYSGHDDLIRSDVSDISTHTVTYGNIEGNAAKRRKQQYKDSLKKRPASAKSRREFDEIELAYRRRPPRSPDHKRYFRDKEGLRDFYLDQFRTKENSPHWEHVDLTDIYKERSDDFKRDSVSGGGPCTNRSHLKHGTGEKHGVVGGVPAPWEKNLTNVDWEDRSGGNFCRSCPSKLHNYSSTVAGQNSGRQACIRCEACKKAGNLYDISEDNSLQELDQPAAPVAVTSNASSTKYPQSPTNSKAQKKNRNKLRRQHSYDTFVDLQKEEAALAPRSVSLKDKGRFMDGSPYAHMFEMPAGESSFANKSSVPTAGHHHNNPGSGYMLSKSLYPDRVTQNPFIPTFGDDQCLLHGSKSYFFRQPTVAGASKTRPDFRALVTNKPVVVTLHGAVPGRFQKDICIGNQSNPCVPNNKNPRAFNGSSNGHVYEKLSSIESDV
Procedure: as §1, §2, §3, §4

[3] = biological target: T3, tubulin (Sus scrofa, UniProt P02550+P02554); experiment: Tubulin polymerization (microtubule assembly); format: biochemical; details: for Tubulin polymerization rate, % of control at 100 µM: read-out: Tubulin polymerization rate (dA355/dt), % Control; for Increase in the rate of tubulin polymerization: 100 µM
T3 construct: purchased Cytoskeleton, Inc. HTS-Tubulin polymerization assay kit
T3 sequence (P02550 whole entry): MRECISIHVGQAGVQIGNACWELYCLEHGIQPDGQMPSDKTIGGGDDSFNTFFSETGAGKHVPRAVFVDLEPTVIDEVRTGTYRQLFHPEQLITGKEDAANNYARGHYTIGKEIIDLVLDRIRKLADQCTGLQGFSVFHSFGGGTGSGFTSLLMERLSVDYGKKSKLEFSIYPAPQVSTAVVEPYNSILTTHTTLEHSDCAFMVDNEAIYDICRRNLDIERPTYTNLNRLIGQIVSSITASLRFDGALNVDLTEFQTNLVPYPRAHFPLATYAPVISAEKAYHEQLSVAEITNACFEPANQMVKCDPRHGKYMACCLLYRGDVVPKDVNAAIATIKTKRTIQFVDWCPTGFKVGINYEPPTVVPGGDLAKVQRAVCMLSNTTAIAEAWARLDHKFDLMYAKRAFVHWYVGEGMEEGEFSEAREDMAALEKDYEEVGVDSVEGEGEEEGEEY
T3 sequence (P02554 whole entry): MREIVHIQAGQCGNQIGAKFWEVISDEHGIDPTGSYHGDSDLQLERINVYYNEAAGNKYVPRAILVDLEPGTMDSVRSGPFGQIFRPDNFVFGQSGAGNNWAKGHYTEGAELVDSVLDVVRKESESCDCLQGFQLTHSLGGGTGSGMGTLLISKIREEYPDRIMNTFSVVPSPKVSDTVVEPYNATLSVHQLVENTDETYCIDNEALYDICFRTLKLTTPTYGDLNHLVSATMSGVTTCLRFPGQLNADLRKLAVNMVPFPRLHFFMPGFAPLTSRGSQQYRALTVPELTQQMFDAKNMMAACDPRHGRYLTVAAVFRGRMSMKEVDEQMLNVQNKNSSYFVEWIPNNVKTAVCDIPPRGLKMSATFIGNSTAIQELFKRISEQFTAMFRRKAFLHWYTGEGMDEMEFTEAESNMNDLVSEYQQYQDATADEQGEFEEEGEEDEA
Procedure: The assembly of tubulin into microtubules was carried out using pure tubulin from an HTS-Tubulin polymerization assay kit (Cytoskeleton, Inc., Denver, CO, USA). A standard polymerization reaction used 100 μL of 4 mg/mL tubulin in 80 mM PIPES (pH 6.9), 0.5 mM EGTA, 2 mM MgCl2, and 1 mM GTP. Polymerization was monitored by recording the change in absorbance on a Wallac Victor 3 1420 Multilabel Counter (Perkin Elmer, Turku, Finland) at λ = 3 55 nm. Electron microscopic monitoring was carried out with a Carl Zeiss Libra 120 electron microscope (Carl Zeiss Meditec AG, Jena, Germany) at 120 kV using negative contrasting.

[4] = biological target: AChE (Homo sapiens, UniProt P22303); experiment: Kinetic analysis of AChE inhibition, steady-state inhibition constants; format: biochemical; details: for AChE inhibition constant αKi (noncompetitive component) / Ki: Lineweaver–Burk analysis; for Ki: read-out: AChE inhibition constant Ki (competitive component); for Mechanism of AChE inhibition: Lineweaver–Burk double reciprocal plot
AChE, sequence (P22303 32-588 isoform P22303-2): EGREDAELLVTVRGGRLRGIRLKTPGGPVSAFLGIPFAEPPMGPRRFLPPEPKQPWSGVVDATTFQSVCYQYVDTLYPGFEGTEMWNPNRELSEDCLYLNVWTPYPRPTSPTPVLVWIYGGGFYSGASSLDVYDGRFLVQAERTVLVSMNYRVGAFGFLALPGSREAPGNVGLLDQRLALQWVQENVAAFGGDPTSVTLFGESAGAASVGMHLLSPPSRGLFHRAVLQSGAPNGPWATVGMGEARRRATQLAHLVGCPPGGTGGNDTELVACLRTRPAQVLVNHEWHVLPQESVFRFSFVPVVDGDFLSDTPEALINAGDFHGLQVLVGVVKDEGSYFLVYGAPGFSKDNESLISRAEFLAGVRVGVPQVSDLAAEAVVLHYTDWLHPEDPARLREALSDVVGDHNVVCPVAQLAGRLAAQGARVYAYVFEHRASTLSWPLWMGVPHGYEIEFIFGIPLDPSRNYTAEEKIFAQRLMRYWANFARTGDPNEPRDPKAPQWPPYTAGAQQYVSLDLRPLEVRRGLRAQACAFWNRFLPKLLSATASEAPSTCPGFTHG
Procedure: . The results were analyzed using the Lineweaver–Burk double reciprocal plot, and the graphical analysis of the kinetic data is shown in Figure 1. […]. To elucidate the inhibition mechanisms for the active compounds, the residual activity of AChE was determined in the presence of three increasing concentrations of the test compounds and six decreasing concentrations of the substrates. The test compounds were preincubated with the enzyme at 25 °C for 5 min, followed by the addition of the substrates. Parallel controls were made for an assay of the rate of hydrolysis of the same concentrations of substrates in the solutions with no inhibitor. The kinetic parameters of substrate hydrolysis were determined. Measurements were performed with a FLUOStar Optima microplate reader. Each experiment was performed in triplicate.

[5] = tested on: isolated rat liver mitochondria; experiment: Bypass of rotenone (complex I) inhibition, mitochondrial repolarization; format: biochemical; details: mitochondria energized by glutamate/malate, rotenone added
Procedure: The ability to bypass complex I inhibition was determined for MB, its reduced form MBH2, and compound 4i (Figure 4).
The addition of rotenone to mitochondria energized by complex I substrates (glutamate/malate) causes considerable depolarization.
Safranine O (10 µM) was used as a membrane potential probe. Fluorescence intensity at 580 nm (excitation at 520 nm) was measured with a Wallac Victor 3 1420 Multilabel Counter (Perkin Elmer, Turku, Finland). The mitochondrial protein concentration was 0.2 mg/mL. The medium for measurements contained 75 mM sucrose, 225 mM mannitol, 10 mM K-HEPES (pH 7.4), 0.02 mM EGTA, and 1 mM KH2PO4. After a 5-min incubation, 5 mM glutamate/malate or 5 mM succinate in the presence of 0.5 µM rotenone were added to produce the mitochondrial potential. Then, the compounds (30 µM) or the same volume of the vehicle (DMSO) were injected into the mitochondrial suspension. After 15–20 min, 12.5 µM CaCl2 was added to each sample to induce the depolarization of mitochondria, and after 5 min, 0.5 µM CCCP was added for maximum depolarization of the mitochondria. The level of depolarization (ΔΨm) was calculated using the fluorescence value after 10-min incubation with 30 µM of compounds (or vehicle) normalized between the fluorescence measurements after substrate and CCCP addition, where fluorescence intensity at 580 nm was 100% after substrate addition and was 0% after CCCP addition.

[6] = tested on: isolated rat liver mitochondria; experiment: Mitochondrial membrane potential and calcium-induced depolarization (safranine O); format: biochemical; details: complex I inhibitor rotenone and a substrate of RC complex II
[7] = tested on: isolated rat liver mitochondria; experiment: Oxygen consumption rate of mitochondria (Seahorse flux analyzer); format: biochemical; details: nanomolar concentrations; complex I substrates (glutamate and malate) and in the presence of rotenone
Procedure: Meanwhile, compound 4i can stimulate respiration of isolated rat liver mitochondria, which was estimated using an XFe96 Seahorse extracellular flux analyzer (Figure 5).
Analysis was based on the fluorometric determination of O2 and H^+ levels with solid-state probes on a sensor cartridge. The oxygen consumption rate (OCR) was measured successively in the presence of RC substrates and then after the addition of ADP (phosphorylating respiration), ATP synthase F^o-subunit inhibitor oligomycin (proton leak), oxidative phosphorylation uncoupler FCCP (maximal respiration), and the corresponding inhibitors of respiration chain complexes (non-mitochondrial respiration) (Figure 5a).
The oxygen consumption was measured using a Seahorse XF96 flux analyzer on mitochondria respiring on glutamate (5 mM) and malate (5 mM), according the same protocol as with a correction to a 96-well instead of a 24-well plate. Respiration by rat liver mitochondria (5 µg/well) was sequentially measured in a coupled state with substrates of complex I (basal respiration); followed by phosphorylating respiration after the addition of ADP; non-phosphorylating or resting respiration induced with the addition of oligomycin; uncoupled respiration stimulated by the addition of FCCP; and finally, non-mitochondrial respiration after the addition of the inhibitor of complex I rotenone.

[8] = 100 µM compound, means ± SEM (n = 6)

Structure (SMILES) | IC50 [1] | IC50 [2] | Structure of microtubules formed (electron microscopy) [3] | Tubulin polymerization rate, % of control at 100 µM [3, 8] | AChE inhibition constant αKi (noncompetitive component) [4] | Ki [4] | Mechanism of AChE inhibition [4] | Repolarization of rotenone-depolarized mitochondria (bypass of complex I inhibition) [5] | Increase in the rate of tubulin polymerization [3] | Effect on mitochondrial membrane potential at 1 μM, rotenone and complex II substrate [6] | Phosphorylating respiration and maximal respiration (OCR) [7] | Tubulin polymerization rate (dA355/dt), % Control [3, 8]
CN(C)c1ccc2c(c1)Sc1cc(N(C)C)ccc1N2C(=O)CCn1c2c(c3cc(OC(F)(F)F)ccc31)CCCC2 [Compound 4h] | 116 ± 10.1 µM | 61.3 ± 6.5 µM | straight, long microtubules with a normal structure | 179 ± 27% |  |  |  |  |  |  |  | 
Cc1ccc2c(c1)c1c(n2CCC(=O)N2c3ccc(N(C)C)cc3Sc3cc(N(C)C)ccc32)CCCC1 [Compound 4c] |  |  |  |  | 5.83 ± 0.31 µM | 1.98 ± 0.17 µM | mixed type inhibition |  |  |  |  | 
CN(C)c1ccc2nc3ccc(=[N+](C)C)cc-3sc2c1 [MB, Methylene blue, reference compound] |  |  | straight, long microtubules with a normal structure | 168 ± 17% |  |  |  | concentration-dependent repolarization | more than 1.5 fold | induced mitochondrial depolarization |  | 
CC1CCc2c(c3cc(OC(F)(F)F)ccc3n2CCC(=O)N2c3ccc(N(C)C)cc3Sc3cc(N(C)C)ccc32)C1 (stereo not shown) [Compound 4i] | 101 ± 9.2 µM | 10.4 ± 1.2 µM | straight, long microtubules with a normal structure | 207 ± 5% | 3.19 ± 0.10 µM | 1.12 ± 0.05 µM | mixed type inhibition | exhibits this type of activity only in a 10 µM concentration |  |  | statistically significant increase | 
CN(C)c1ccc2c(c1)Sc1cc(N(C)C)ccc1N2C(=O)CCn1c2c(c3ccccc31)CCCCCC2 [Compound 4m] |  |  |  |  | 4.03 ± 0.15 µM | 1.06 ± 0.04 µM | mixed type inhibition |  |  | induced mitochondrial depolarization |  | 
CN(C)c1ccc2c(c1)Sc1cc(N(C)C)ccc1N2 [MBH2, reference compound] |  |  |  |  |  |  |  | concentration-dependent repolarization | more than 1.5 fold |  |  | 178 ± 11 % Control
